Where two headings read alike, the source gives them in different places.
Columns and labels:
MO7E cells [1] = assay: Apoptosis assay: activated caspase-3 by FACS; format: cell-based, human
Method: (§1) Samples were assayed at 24 and 48 hours. To measure activated caspase-3, samples were washed with PBS and permeabilized with ice-cold 70% ethanol. The cells were then stained with PE-conjugated polyclonal rabbit anti-active caspase-3 and analyzed by FACS. To measure cleaved PARP, samples were lysed and analyzed by western blotting with an anti-PARP antibody.

MO7E cells [2] = assay: cells; details: Homo sapiens, 48 h, read-out: IC50 value for inhibition of proliferation
Method: (§2) MO7E cells, a human myeloid leukemia cell line, were maintained in RPMI-1640 medium supplemented with 10% fetal calf serum and 10 ng/ml each IL-3 and GM-CSF.

c-kit = c-kit (Homo sapiens, UniProt P10721); details: MO7E cells, 250 ng/ml rh-SCF 15 min, pre-treatment Compound Eight 2 hours, Compound Six 22 hours
Method: as §2
MO7E cells were serum starved overnight in 0.1% serum. […] Cells were stimulated with 250 ng/ml rh-SCF for 15 minutes. Following stimulation, cells were lysed and immunoprecipitated with an anti-c-kit antibody. Phosphotyrosine and protein levels were determined by western blotting.

MO7E cells [3] = assay: Apoptosis assay: cleaved PARP by western blotting; format: cell-based, human
Method: as §1

Chain of c-kit (P10721 26-976): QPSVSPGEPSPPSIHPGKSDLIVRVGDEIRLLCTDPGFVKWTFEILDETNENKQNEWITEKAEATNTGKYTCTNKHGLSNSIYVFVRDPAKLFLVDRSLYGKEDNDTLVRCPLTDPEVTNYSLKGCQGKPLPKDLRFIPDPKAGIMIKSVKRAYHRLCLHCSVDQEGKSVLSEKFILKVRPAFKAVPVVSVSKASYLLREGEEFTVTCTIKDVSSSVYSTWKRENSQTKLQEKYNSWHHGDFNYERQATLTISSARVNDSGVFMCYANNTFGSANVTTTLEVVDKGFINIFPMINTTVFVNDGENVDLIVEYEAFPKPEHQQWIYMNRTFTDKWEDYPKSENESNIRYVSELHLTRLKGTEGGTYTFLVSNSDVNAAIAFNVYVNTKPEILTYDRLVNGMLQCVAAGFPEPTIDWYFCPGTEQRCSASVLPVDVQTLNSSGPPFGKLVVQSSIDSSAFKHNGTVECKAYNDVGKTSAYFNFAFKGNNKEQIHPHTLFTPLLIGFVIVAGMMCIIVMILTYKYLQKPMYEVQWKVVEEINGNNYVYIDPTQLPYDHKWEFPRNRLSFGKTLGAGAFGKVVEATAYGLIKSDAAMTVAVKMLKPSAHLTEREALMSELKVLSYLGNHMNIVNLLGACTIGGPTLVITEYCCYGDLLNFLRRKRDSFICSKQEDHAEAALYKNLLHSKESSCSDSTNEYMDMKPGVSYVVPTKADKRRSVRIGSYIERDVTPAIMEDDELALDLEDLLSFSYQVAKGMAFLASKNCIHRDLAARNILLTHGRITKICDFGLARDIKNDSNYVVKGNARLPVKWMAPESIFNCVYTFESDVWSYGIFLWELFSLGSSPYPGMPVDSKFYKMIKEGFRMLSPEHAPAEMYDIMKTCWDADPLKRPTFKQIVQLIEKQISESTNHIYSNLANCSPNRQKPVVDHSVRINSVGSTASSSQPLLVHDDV

SMILES	effect on number of apoptotic cells (activated caspase-3) (MO7E cells [1]; 5 μM, 24 hours, with or without SCF stimulation)	IC50 (MO7E cells [2]) [µM]	inhibition of c-kit tyrosine phosphorylation (c-kit; 0.01 μM)	inhibition of c-kit tyrosine phosphorylation (c-kit; 0.1 μM)	inhibition of c-kit tyrosine phosphorylation (c-kit; 1 μM)	inhibition of c-kit tyrosine phosphorylation (c-kit; 10 μM)	effect on number of apoptotic cells (activated caspase-3) (MO7E cells [1]; 5 μM, 24 or 48 hours, +/- SCF stimulation)	effect on number of apoptotic cells (activated caspase-3) (MO7E cells [1]; 25 μM, 24 hours, +/- SCF stimulation)	increase in the number of apoptotic cells (activated caspase-3) (MO7E cells [1]; 25 μM, 48 hours, SCF stimulation, compared to untreated SCF stimulated cells)	effect on number of apoptotic cells (activated caspase-3) (MO7E cells [1]; 25 μM, 48 hours, absence of SCF stimulation)	increase in cleaved PARP (MO7E cells [3]; 5 μM, both timepoints (24 and 48 hours))	increase in the amount of cleaved PARP (MO7E cells [3]; 25 μM, 48 hours)	change of the cleaved PARP effect with SCF stimulation (MO7E cells [3]; 25 μM, 48 hours, with SCF stimulation)
Cc1[nH]c(/C=C2\C(=O)Nc3ccccc32)c(C)c1CCC(=O)O [Compound Six]	no effect	5 to 7	no inhibition	no inhibition	partial inhibition	complete inhibition	–	–	–	–	–	–	–
Cc1cc(C)c(/C=C2\C(=O)Nc3ccccc32)[nH]1 [Compound Eight]	–	–	–	–	–	–	measurable but smaller number of apoptotic cells	measurable but smaller number of apoptotic cells	approximately 50%	slight effect	very minimal increase	greatest increase	augmented slightly
